Reference: patent publication US4596710A, “Gallium chloride as a new anti-cancerous drug” (priority 1981, dated 1986)

Key:
[1] = Clinical, renal and biological tolerance in bitches; format: in vivo, female dogs
Experimental: The anti-tumoral effect of gallium chloride was firstly studied in female dogs having spontaneous malignant tumours of the breast. Gallium chloride therapy was carried out in bitches having a mammary cancer (tubulo-pillaryadenocarcinoma or mixed-type tumour); treatment started either at the stage of the primary tumour (4 bitches) or upon a recurrence after a surgical excision (10 bitches).
In the third case, the treatment could be continued for more than six months in a very old bitch of 14 years.
Posology of gallium chloride, per os: 7.5 mg/kg from 15.4.1981 to 14.9.1981, then 10 mg/kg.

[2] = Clinical and biological tolerance in patients
Experimental: Mrs. […] Post-operative chemotherapy (5-fluoro-uracil and endoxan) was then effected up to April 1979. At that time, […] underwent a second operation with excision of the remaining cervix and omentectomy. […] Cobalt therapy was then carried out from Nov. 5th, 1979 to Feb. 5th, 1980 on the abdomen, pelvis and diaphragm cupolas, then further chemotherapy (hexamethylmelamine) from August to October 1980. […] Treatment by gallium chloride started on Nov. 1 st, 1980 at the posology of 300 mg per day per os in three doses of 100 mg. […] An echotomograph on Dec. […] A third echotomograph was made on Jan. […] On Mar.
The treatment by gallium chloride was started on May 15th, 1981, at the posology of 600 mg/24 hours up to Sept. 20th, 1981, in association with a heparinotherapy at mini-doses. This heparinotherapy had been prescribed to prevent a phlebitis or pulmonary embolism following the surgical operation of April 1981 and had not been interrupted in order not to provoke the phenomenon of tumoral flare-up. [Calciparin (heparin calcium salt) 0.2 ml, 3 times per day by sub-cutaneous route]. […] On Sept. […] This was the case. . . […] 29th, 1981. […] Up to Nov. […] It was from Sept.
HOT... […] , was operated on May 14th, 1981 for an adenocarcinoma of the colon. […] An almost total colectomy was carried out, leaving 20 cm of sigmoid and a resection of the small bowel over a length of 15 cm. […] On Oct. […] An exploratory laparotomy was made on Nov. […] 7th, 1982.
(§1) Gallium chloride therapy was started on Sept.

[3] = Acute toxicity on the mouse; format: in vivo; settings: per os
[4] = tested on: malignant melanoma; test: 3rd patient: gallium chloride treatment, tumour response; format: in vivo, human
Text: On Sept. […] This was the case. . . […] Up to Nov. […] It was from Sept.

[5] = tested on: left axillary lymphadenopathy; test: 2nd patient: gallium chloride treatment, tumour response
Text: A complete check-up to seek primary localisation was undertaken. In view of the negative nature of this check-up, the diagnosis of cutaneous primary tumour, developed at the expense of the cutaneous appendants (eccrine tumour) was retained.

[6] = tested on: globular Mg; test: Globular Mg rates in patients in the course of treatment; format: in vivo, human
Text: The importance of checking the globular Mg rates was furthermore clearly illustrated by the following two observations (3rd and 4th patients).
On Sept. […] This was the case. . . […] 29th, 1981. This posology was tolerated up to Nov. […] Up to Nov. […] It was from Sept.
(§2) A person . . . […] On Oct. […] An exploratory laparotomy was made on Nov. […] 7th, 1982.
FIGS. 1, 2 and 3 show the curves of the globular Mg (1) and plasmatic Mg (2) rates as a function of time in the course of treatment by gallium chloride (the starting point of the curves corresponding to the first administration) of the three patients. A person […] (1st patient, […] (3rd Patient) and a person […] (4th patient, respectively.
To follow the globular Mg rates, the dosages must be frequent and repeated, about once a week. In fact, there are cyclic variations of the globular Mg rates with a curve of sinusoidal appearance, and the period of these cycles, like the importance of the globular Mg rates, are a function of the evolutive potential of the malignant tumour (P. COLLERY et col. "Role of Magnesium in the Development of Cancer", Trace Substances in Environmental Health, XII, 1978--A Symposium--University of Missouri--Columbia). The appearance of this curve is modified, as indicated above, by the anti-tumoral therapy by gallium chloride.

[7] = tested on: epidermoid carcinoma of the oesophagus; test: 5th patient: gallium chloride treatment, tumour response; format: in vivo, human
Text: A person . . . Michel: the diagnosis of differenciated, mature and infiltrating epidermoid carcinoma of the oesophagus was made on Sept. 3rd, 1981. This was a voluminous tumour, extending from 23 to 32 cm, from the dental arches (according to the data from the endoscopy) with an invasion of the rear face of the origin of the left principal bronchus and the carina tracheae. In the bronchoscopy of Sept. 8th, 1981, there was a necrotic tumoral bud obstructing the light of the bronchus by two-thirds.
as §1
A further bronchoscopy was made on Oct. […] The existence of a considerable sub-jacent bronchial stasis and of daily dispnoeic attacks in the evening led to treatment of this bronchial tumour by laser on Oct. 20th, 1981. […] Feeding by the oral route was stopped, as well as the gallium chloride treatment and, after parenteral feeding, a celestine prosthesis was positioned by endoscopic route on Nov. 3rd, 1981. The sequels of the positioning of the prosthesis was marked by the appearance of an infectious bronchial syndrome which led to death of the patient on Nov. 18th, 1981.

[8] = tested on: adenocarcinoma of the colon; test: 4th patient: gallium chloride treatment, tumour response; format: in vivo, human
Text: as §2

[9] = 800 mg/24 hours oral, one month
[10] = therapy continued up to Nov. 10th, 1981

## [Cl][Ga]([Cl])[Cl] [gallium chloride]
[1]; 5 mg/kg
  clinical and biological tolerance, bitches overall: excellent
[1]; 7.5 mg/kg then 10 mg/kg per os
  clinical and renal tolerance, first bitch (OUD): perfect
[1]; 2.5, 5, then 7 mg/kg per os
  clinical and renal tolerance, second bitch (BEL): perfect
[1]; dog, in vivo, 5 mg/kg
  dyspnoea leading to stop of treatment: treatment was stopped for one month due to a dyspnoea
[1]; oral, drinkable ampoules, first bitches 1 mg/kg, particularly digestive
  tolerance, bitches: tolerance proved to be good, particularly from the digestive point of view
[2]; 300 mg per day per os, two months uninterrupted
  clinical and biological tolerance, 1st patient: good
[2]; [9]
  renal, hepatic, blood cells count disturbance, 5th patient: no renal nor hepatic disturbance nor disturbances in the blood cells count
  tolerance, 5th patient: tolerated perfectly well, both from the clinical and biological point of view
[2]; 800 mg/24 hours, from Nov. 27th, 1981
  anorexia leading to stop of therapy, 3rd patient: virtually total anorexia
[2]; 500 then 300 mg/24 hours oral, without renal disorders
  tolerance, 4th patient: perfect clinically and biologically (without renal disorders in particular)
[2]; Jan. 6th, 1982
  blood cells count, hepatic balance, calcemia, phosphatemia, 2nd patient: normal
  general state, 2nd patient: good, with a normal appetite
  inflammatory balance (haptoglobin), 2nd patient: normal
[2]; Jan. 6th, 1982, normal
  creatinine, 2nd patient: 88.50 µmol/L
[2]; Jan. 6th, 1982, oral since May 20th, 1981
  tolerance, 2nd patient: perfectly well tolerated, without any digestive disorders or neurological, cardiac or cutaneous effects
[2]; Jan. 6th, 1982, unchanged since beginning of treatment
  weight, 2nd patient: 71 kg
[2]; Sept. 29th to Nov. 27th, 1981
  tolerance of 800 mg/24 hours, 3rd patient: tolerated up to Nov. 27th, 1981
[2]; after Mar. 20th, 1981
  digestive intolerance leading to interruption, 1st patient: had to be interrupted due to digestive intolerance
[2]; up to Nov. 27th, 1981
  renal function and blood cells count, 3rd patient: normal
[2]; up to Sept. 20th, 1981, 600 mg/24 hours with Calciparin, stable
  weight, 3rd patient: 70 kg
[3]
  LD50: 1790 mg/kg
[4]; 600 mg/24 hours with Calciparin
  general state up to Sept. 20th, 1981, 3rd patient: satisfactory, with a good appetite
[4]; gallium chloride increased to 800 mg/24 hours from Sept. 29th, 1981
  general state / metastases after Calciparin interruption, 3rd patient: general state rapidly worsened, with appearance of a metastatic hepatomegaly of which the volume increased rapidly
[5]; 300 mg per day oral
  hardness of lymphadenopathy, July 23rd, 1981: much harder
[5]; 600 mg and 300 mg alternately, oral
  lymphadenopathy, Jan. 6th, 1982: no longer perceptible
[5]; 600 mg per day oral
  diameter of lymphadenopathy, Dec. 8th, 1981: 1 cm in diameter
[5]; Jan. 6th, 1982
  dorsal osseous pains, 2nd patient: dorsal osseous pains persisted, but of mechanical type, completely calmed by rest
[5]; oral from May 20th, 1981, from end of July 1981
  regression of the lymphadenopathy: progressive regression of the lymphadenopathy
[6]; 300 mg/24 hours oral
  globular magnesium rates, 4th patient, Oct. 15th, 1981: 3.00 mmol/L
[6]; 800 mg/24 hours, after heparinotherapy stopped
  globular magnesium rates, 3rd patient, Oct. 6th, 1981: 2.96 mmol/L
[6]; 1st, 3rd and 4th patients, when treatment is efficacious
  globular magnesium rates, curves of FIGS. 1-3: decrease
[6]; 500 then 300 mg/24 hours oral
  globular Mg rates, first 4 months, 4th patient: normal
[6]; human, in vivo
  correlation between clinical state, carcinoembryonic antigen and globular magnesium rates, 4th patient: could be emphasized
[7]; 800 mg/24 hours oral from Sept. 21st, 1981
  bronchial obstruction, bronchoscopy Oct. 13th, 1981, 5th patient: the same bronchial obstruction
[7]; infectious bronchial syndrome after prosthesis, treatment already stopped
  death, 5th patient: death of the patient on Nov. 18th, 1981
[8]; 300 ng per day (so in the source), up to Nov. 10th, 1981
  prevention of recurrence, 4th patient: insufficient
[8]; 300 mg/24 hours oral
  carcinoembryonic antigen rates, 4th patient, Oct. 15th, 1981: 9 ng/mL
[8]; 500 then 300 mg/24 hours oral
  carcinoembryonic antigen rates, first 4 months, 4th patient: normal
  general state, first 4 months, 4th patient: very satisfactory
[8]; Nov. 12th, 1981
  exploratory laparotomy, 4th patient: an indissectable ileomesenteric block and hepatic granulations distributed like grains of rice over the whole of the two lobes of the liver
[8]; [10]
  carcinoembryonic antigen rates, 4th patient, Nov. 26th, 1981: 97 ng/mL
  death, 4th patient: death occured on Jan. 7th, 1982
